Test results taken from US20080241870A1, “Composition For Creating an Artificial Bone Marrow Like Environment and Use Thereof” (NATIONAL CENTRE FOR CELL SCINECES, priority 2005, published 2008).

Experiments:
Format in all cases: cell-based, human
[1] = test system: mesenchymal cells (ABME) with MNC; experiment: quantitative hematopoietic colony formation assay for ABME (HCFA-ABME): MNC with hematomodulator-contacted mesenchymal cells
Source text: As described above, the medium for blood cell formation employed may be IMDM with 20% serum and supplemented with interleukins such as IL-lbeta, IL-3, and IL-6, stem cell factor, lineage specific growth factors such as erythropoietin and GM-CSF, G-CSF; and methyl cellulose to the extent of 0.8%, the culture is maintained for 12-14 days under the culture conditions whereby blood cell colonies grow well or form colonies and clearly the growth is visible/distinguishable for further analysis and use. An assay designed in a similar manner to assess quantitative nature of ABME function is referred hereafter as ‘quantitative hematopoietic colony formation assay for ABME (HCFA-ABME)’.
Several experiments were conducted to determine that mesenchymal cells exert direct influence on SPC cell-fate. In one set of experiments, mesenchymal cells were cultured separately and nearly 50,000 of them were exposed to a typical HCFA medium comprising 0.8% methyl cellulose in IMDM and 20-30% serum along with excess amounts of various purified and human specific cytokines and hematopoietic colony stimulating growth factors (from Stem cell Technologies, […], Canada). More specifically, the quantities of hematopoietic growth factors used routinely in HCFA were, 2 International Units per milliliter (2 I.U.ml^−1) of Erythropietin (EPO), 50 nanogram per milliliter (50 ng.ml^−1) of Stem Cell Factor (SCF) and 20 nanogram per milliliter (20 ng/ml^−1) each of Granulocyte-Macrophage-Colony Stimulating Factor (GM-CSF), Granulocyte-Colony Stimulating Factor (G-CSF), Interleukin-1 beta (IL-1β), Interleukin-3 (IL-3) and Interleukin-6 (IL-6) {all growth factors and cytokines are from Stem cell Technologies, Vancouver, Canada,}.
In another set of experiments, 50,000 of the same mesenchymal cells were first mixed with nearly 100,000 MNC, held at 37° C. for at least 30 minutes and were processed for colony formation assays. In several experiments, a consistent improvement in the number and cellularity of the hematopoietic colonies was seen when both these two cell types were mixed compared to a reference where only the cells of MNC were used. The increase was ranging from 1.5 to 10-fold. Thus, the enhancement in colony formation obtained with the use of only mesenchymal cells was highly variable and unpredictable among samples. The fact that hematopoietic colonies formed in increased numbers and cellularity only when MNC and mesenchymal cells were processed together is evidence of a new environment created by the mesenchymal cells in which the SPC present in the MNC were more productive. This increase results in activation of the pre-existing but quiescent SPC, formation of new SPC due to self-renewal, and a combination of both factors.
In order to create ABME, the mesenchymal cells were covered with the contacting medium comprising hematomodulators contained in IMDM with 20% human serum or fetal bovine serum for a desirable period (range 8-24 hours) and removed. The contacted cells were then washed 2 times using the contacting medium (IMDM +20% FCS) without hematomodulators and used as such or after harvesting the mesenchymal cells, which now represent the composition of in vitro ABME. Optionally, ABME cells can be configured on supports that will distribute them in two or more dimensions for better results. A requisite number of MNC/SPC and cells of the ABME are taken and kept together for a suitable duration (range 0.5 to 6 hours) after which they were processed for in vitro hematopoietic colony formation assays or hematopoiesis.
Thus, the inventors undertook 4 sets of experiments: (a) wherein mononuclear cells were exposed to mesenchymal cells without any treatment; (b) wherein MNC were exposed to mesenchymal cells contacted with a biological agent [TGFβ1] […]

CD34+ SPC = experiment: lineage commitment: HCFA with CD34+ SPC, count of mature blood cells after 14 days
Description: The mesenchyme cells (5×10^4 cells per well in a 24 well dish) were grown in IMDM plus 20% fetal bovine serum until they were nearly confluent. The medium was removed and was washed 2× with PBS. Two different ABME were prepared by using two biological hematomodulators (TGFβ1 10 ngml^−1, bFGF 10 ngml^−1, 18 hours) separately. The ABME formed was washed 2× with PBS and was covered with 0.2 ml of a suspension of CD34^+ SPC cells (10^5 ml−1) for 1 hour at 37° C. All the cells of the dish were then harvested after washing and were used in a HCFA. After 14 days, the mature blood cells formed were harvested and an aliquot of the suspension was examined under the microscope to identify and count the mature lymphoid and myeloid cells.
The mesenchyme cells (5×10^4 cells per well in a 24 well dish) were grown in IMDM plus 20% fetal bovine serum until they were nearly confluent. The medium was removed and was washed 2× with PBS. The cells in one well were treated with a DiBromo derivative of the Calcium ion chelator BAPTA (5 micromolar) for one hour whereas another well received only the medium without the BAPTA derivative. After 1 hour of incubation at 37° C., TGFβ1 was added to both the wells (10 ng ml−1) and the incubation was continued for a further period of 18 hours. The ABME formed in both wells were washed and were used for HCFA using CD34^+ SPC. After 14 days the mature blood cells were harvested and were quantitated for the cells of erythroid and myeloid lineage.

SPC = experiment: priming of SPC before contact with ABME, colony formation; conditions: for colony/blood cell formation after priming SPC: SPC primed with agent
Source text: Experiments were directed to determine if the ABME had properties that promoted cell survival.

αiib:β3 integrin = experiment: engraftment: HCFA of CD34+ SPC attached to ABME formed via αiib:β3 integrin signaling; conditions: FIG. 7
Description: The mesenchyme cells (5×10^4 cells per well in a 24 well dish) were grown in IMDM plus 20% fetal bovine serum until they were nearly confluent. The medium was removed and was washed 2× with PBS. ABME was prepared by using a chemical hematomodulator [Biotin-Ser-Gly-Ser-Gly-Cys*-Asn-Pro-Arg-Gly-Asp (Tyr-OMe)Arg-Cys*Lys (cyclised between C*-C*), 10 microgram ml^−1, 18 hours] that selectively activated αiib:β3 integrin signaling in the mesenchyme cells. The ABME formed was washed 2× with PBS and was covered with 0.2 ml of a suspension of CD34^+ SPC cells (10^5 ml−1) for 1 hour, in the presence or absence of another peptide [1-Adamantaneacetyl-Cys*Gly-Arg-Gly-Asp-Ser-Pro-C(Cyclised between Cys*-Cys*)]which inhibited the interactions of αiib:β3 integrin. At the end of incubation, the cells were washed 2× with PBS and were processed for hematopoietic colony formation assays (HCFA). […] More specifically, the quantities of hematopoietic growth factors used routinely in HCFA were, 2 International Units per milliliter (2 I.U.ml^−1) of Erythropoietin (EPO), 50 nanogram per milliliter (50 ng.ml^−1) of Stem Cell Factor (SCF) and 20 nanogram per milliliter (20 ng/ml^−1) each of Granulocyte-Macrophage-Colony Stimulating Factor (GM-CSF), Granulocyte-Colony Stimulating Factor (G-CSF), Interleukin-1 beta (IL-1β), Interleukin-3 (IL-3) and Interleukin-6 (IL-6). […]

## CC(C)[C@H]1C(=O)N[C@H](CO)Cc2c[nH]c3cccc(c23)N1C [chemical agent 1, (—) Indolactam V, reference compound]
[1]; MNC exposed to mesenchymal cells contacted with chemical agent, (A) = untreated mesenchymal cells
  colonies of cells relative to (A): at least 4 times

## O=C(O)CN(CC(=O)O)c1ccc(Br)cc1OCCOc1cc(Br)ccc1N(CC(=O)O)CC(=O)O [DiBromo BAPTA, DiBromo derivative of Ca^++ chelator BAPTA, reference compound]
CD34+ SPC; 5 micromolar for one hour, then TGFβ1 10 ng ml-1 18 hours, vs TGFβ1 alone, FIG. 8b
  proportion of myeloid and erythroid cells: significant difference in the proportion of myeloid and erythroid cell population

## IGF-II: priming agent, Mannose6-phosphate/IGF-II receptor
SPC
  colony/blood cell formation after priming SPC: improved colony/blood cell formation

## Biotin-Ser-Gly-Ser-Gly-Cys*-Asn-Pro-Arg-Gly-Asp (Tyr-OMe)Arg-Cys*Lys (cyclised between C*-C*)
αiib:β3 integrin; 10 microgram ml^-1, 18 hours, CD34+ SPC 1 hour, HCFA 12-14 days
  hematopoietic colonies formed by ABME (activating peptide): significantly more number of hematopoietic colonies

## HuFGF-2
[1]; 1-25 nano gram.ml^-1, mesenchymal cells contacted 8-24 hours
  efficiency of ABME created: equally efficient ABME
[1]; lineage specific colony formation assay, FIG. 3A, vs control without biological agent
  colony formation along lineages GEMM, BFU-E and GM: uniformly stimulated
[1]; used separately
  potency in creating ABME from mesenchymal cells: nearly equipotent
CD34+ SPC; 10 ngml^-1, 18 hours, HCFA 14 days, FIG. 8a
  mature lymphoid and myeloid cells formed: more of lymphoid cells were produced

## IGF-1: priming agent activating IGF-I receptor signals
SPC
  colony/blood cell formation after priming SPC: improved colony/blood cell formation

## 1-Adamantaneacetyl-Cys*Gly-Arg-Gly-Asp-Ser-Pro-C(Cyclised between Cys*-Cys*) (GRGDSP; N-terminal 1-adamantaneacetyl-Cys, C-terminal Cys; cyclised Cys-Cys; printed: Gly-Arg-Gly-Asp-Ser-Pro-)
αiib:β3 integrin; inhibitor present during SPC contact with ABME formed by activating peptide
  hematopoietic colony numbers in presence of inhibitory peptide: colony numbers decreased in an inhibitor dose dependent manner

## NC(=O)c1cccc(N)c1 [3 Amino Benzamide, reference compound]
SPC
  colony/blood cell formation after priming SPC: improved colony/blood cell formation
SPC; SPC treated to inhibit Poly(ADP-ribose) Polymerase, FIG. 9
  number of hematopoietic colonies formed from treated SPC: synergistically increasing the number of hematopoietic colonies formed

## Latency Associated peptide of human TGF beta1.
SPC
  colony/blood cell formation after priming SPC: improved colony/blood cell formation
